Source: patent US12382888B2, “Compositions and methods for modulating immunity in plants” (Boyce Thompson Institute for Plant Research, Inc., priority 2013, dated 2025)
“Also recorded” adds a separate entry of the source.

What was measured:
[1] = system: Pseudomonas syringae pv. tabaci; assay: Resistance of tobacco to Pseudomonas syringae pv. tabaci (bacterial growth); details: leaves treated with 250 μM SA alone
[2] = system: Pseudomonas syringae pv. tomato DC3000 (Pst); assay: Resistance of Arabidopsis to Pseudomonas syringae pv. tomato DC3000 (bacterial growth); format: in vivo; details: for resistance to virulent Pst DC3000 (bacterial growth): leaf syringe infiltration 0.3 μM 24 hours prior to inoculation, 3 dpi; for resistance to virulent Pst DC3000: leaf treatment at the concentration tested
[3] = system: asthma in a mouse model system; details: cited from earlier work
C. elegans = details: cited from earlier work; for sex pheromone activity: mixture of three ascarosides
PR-1 [4] = assay: PR-1 protein/transcript induction in tobacco leaves (immunoblot, RT-PCR); details: low concentrations of ascaroside
Experimental: Four-weeks old tobacco plants were syringe-infiltrated with buffer, SA, or a mixture of SA (50 μM or 500 μM) and decreasing concentration of ascr #18 (10, 0.3, and 0.01 μM). PR-1 was assayed 48 hours after treatment by immunoblot using anti-PR-1 antibody.
PR-1 expression was analyzed 48 hp SA treatment.
To determine whether ascr #18 affects levels of the prototypic SA-responsive PR-1 gene/protein, tobacco plants were treated with varying concentrations of ascr #18 in the presence or absence of SA (FIG. 2).

[5] = system: ovalbumin-specific T-helper cell responses; details: mice; cited from earlier work
PDF1.2 = PDF1.2 expression in Arabidopsis leaves (semi-quantitative PCR / qRT-PCR); details: for PDF1.2 expression in Arabidopsis: leaf pretreatment by syringe infiltration, 0.01, 0.3, and 10 μM; for PDF1.2 expression, ascaroside alone: leaf syringe infiltration (0.01 or 0.3 μM), semi-quantitative PCR
PR-1 [6] = assay: PR-1 expression in Arabidopsis leaves (semi-quantitative PCR / qRT-PCR); details: for PR-1 expression in Arabidopsis: leaf pretreatment by syringe infiltration, 0.01, 0.3, and 10 μM; for PR-1 expression, ascaroside alone: leaf syringe infiltration (0.01 or 0.3 μM), semi-quantitative PCR
Botrytis cinerea = assay: Resistance of tomato to Botrytis cinerea B05.01 (detached leaflet assay); format: in vivo; details: tomato cv. M82; root immersion 0.01 μM 48 hours before
M. incognita = assay: Arabidopsis root knot nematode infection assay; format: in vivo, Meloidogyne incognita; details: higher concentrations than 10 nM
Heterodera schachtii = assay: Arabidopsis cyst nematode infection assay; format: in vivo; details: higher concentrations than 10 nM
[7] = ascaroside at low concentrations in combination with SA (50 μM)
[8] = higher concentration of ascaroside with SA (50 μM)

O=C(O)c1ccccc1O [SA, salicylic acid, reference compound]
virulent P.t. growth [1]: reduced levels of virulent P.t. growth
protection against Pst ([2]; 50 μM SA alone, leaf infiltration): low level of protection

CC1O[C@@H](O[C@H](C)CCCCC(=O)O)C(O)C[C@H]1O (stereo partly shown) [ascr #1]
development of asthma [3]: strongly suppressed the development of asthma

CC(=O)CC[C@@H](C)O[C@@H]1OC(C)[C@H](O)CC1O (stereo partly shown) [ascr #2, reference compound]
sex pheromone activity (C. elegans): active at low nanomolar concentrations

CC1O[C@@H](O[C@H](C)CCCC/C=C/C(=O)O)C(O)C[C@H]1O (stereo partly shown) [ascr #3]
PR-1 expression in tobacco cv. W38 (PR-1 [4]): did not significantly increase PR-1 expression
response of hermaphrodites (C. elegans): repels hermaphrodites
sex pheromone activity (C. elegans): active at low nanomolar concentrations
ovalbumin-specific T-helper cell responses [5]: no significant effect
PDF1.2 expression in Arabidopsis (PDF1.2): +
PDF1.2 expression, ascaroside alone (PDF1.2): induces PDF1.2 expression; also recorded: induced expression; also recorded: altered
resistance to virulent Pst DC3000 (bacterial growth) [2]: enhanced resistance
SA-induced PR-1 expression (PR-1 [6]; [7]): enhances PR-1 expression induced by SA
SA-induced PR-1 expression (PR-1 [6]; [8]): reduces the SA-induced PR-1 expression
PR-1 expression in Arabidopsis (PR-1 [6]): +
PR-1 expression, ascaroside alone (PR-1 [6]): induces PR-1 expression; also recorded: induced expression; also recorded: altered

CC1O[C@@H](O[C@H](C)CC/C=C/C(=O)O)C(O)C[C@H]1O (stereo partly shown) [ascr #7]
ovalbumin-specific T-helper cell responses [5]: strongly suppresses
development of asthma [3]: strongly suppressed the development of asthma

CC1O[C@@H](O[C@H](C)CC/C=C/C(=O)Nc2ccc(C(=O)O)cc2)C(O)C[C@H]1O (stereo partly shown) [ascr #8]
sex pheromone activity (C. elegans): active at low nanomolar concentrations

C[C@H](CCC(=O)O)O[C@@H]1O[C@@H](C)[C@H](O)C[C@H]1O [ascr #9]
PR-1 expression in tobacco cv. W38 (PR-1 [4]): did not significantly increase PR-1 expression
PDF1.2 expression in Arabidopsis (PDF1.2): +
PDF1.2 expression, ascaroside alone (PDF1.2): induces PDF1.2 expression; also recorded: induced expression; also recorded: altered
resistance to virulent Pst DC3000 [2]: did not significantly enhance resistance
SA-induced PR-1 expression (PR-1 [6]; [7]): enhances PR-1 expression induced by SA
SA-induced PR-1 expression (PR-1 [6]; [8]): reduces the SA-induced PR-1 expression
PR-1 expression in Arabidopsis (PR-1 [6]): +
PR-1 expression, ascaroside alone (PR-1 [6]): induces PR-1 expression; also recorded: induced expression; also recorded: altered

CC1O[C@@H](O[C@H](C)CCCCCCC(=O)O)C(O)C[C@H]1O (stereo partly shown) [ascr #10]
PR-1 expression in tobacco cv. W38 (PR-1 [4]): did not significantly increase PR-1 expression
response of hermaphrodites (C. elegans): strongly attracts hermaphrodites
PDF1.2 expression, ascaroside alone (PDF1.2): induces PDF1.2 expression; also recorded: altered
resistance to virulent Pst DC3000 [2]: did not significantly enhance resistance
SA-induced PR-1 expression (PR-1 [6]; [7]): enhances PR-1 expression induced by SA
PR-1 expression, ascaroside alone (PR-1 [6]): induces PR-1 expression; also recorded: altered

CC1O[C@@H](O[C@H](C)CCCCCCCCC(=O)NCCO)C(O)C[C@H]1O (stereo partly shown) [easc #18]
resistance to B. cinerea (lesion size 3 dpi) (Botrytis cinerea): enhanced resistance
resistance to virulent Pst DC3000 (bacterial growth) [2]: enhances resistance

CC1O[C@@H](O[C@H](C)CCCC/C=C/C(=O)O)C(O)C[C@H]1OC(=O)c1ccc(O)cc1 (stereo partly shown) [hbas #3, reference compound]
promotion of aggregation behaviors (C. elegans): active at femtomolar concentrations

CC1O[C@@H](OCCCCC(=O)O)C(O)C[C@H]1O (stereo partly shown) [oscr #9]
PDF1.2 expression in Arabidopsis (PDF1.2): −
resistance to virulent Pst DC3000 [2]: did not significantly enhance resistance
SA-induced PR-1 expression (PR-1 [6]; [7]): enhances PR-1 expression induced by SA

(10R)-(3′R,5′R-dihydroxy-6′S-methyl-(2H)-tetrahydropyran-2-yloxy)-undecanoic Acid [ascr #18]
infection with M. incognita (M. incognita): less effective
infection with H. schachtii (Heterodera schachtii): less effective
